# Key:
# [1] = test system: renal dehydropeptidase I (DHP-I); experiment: Tested for Biological half life in human plasma (stability to human renal dehydropeptidase I,DHP-I).; format: ADME, cell-free
# Bacteroides fragilis = experiment: The compound was tested in vitro for the antibacterial activity against Bacteroides fragilis 2017 strain, activity expressed as MIC; format: functional
# Clostridium perfringens = experiment: The compound was tested in vitro for the antibacterial activity against Clostridium perfringens 615E strain, activity expressed as MIC; format: functional
# Escherichia coli [2] = experiment: The compound was tested in vitro for the antibacterial activity against Escherichia coli 1919 beta-lactamase producing strain, activity expressed as MIC; format: functional
# Staphylococcus aureus [3] = experiment: The compound was tested in vitro for the antibacterial activity against Staphylococcus aureus 663E strain, activity expressed as MIC; format: functional
# Staphylococcus aureus [4] = experiment: The compound was tested in vitro for the antibacterial activity against Staphylococcus aureus 853E beta-lactamase producing strain, activity expressed as MIC; format: functional
# Escherichia coli [5] = experiment: The compound was tested in vitro for the antibacterial activity against Escherichia coli 1850E strain, activity expressed as MIC.; format: functional
# [6] = test system: renal dehydropeptidase I (DHP-I); experiment: Biological half life in human plasma (stability to human renal dehydropeptidase I,DHP-I).; format: ADME, cell-free
# [7] = Clostridium perfringens, read-out: MIC
Structure (SMILES),half-life [1] [min],MIC (Bacteroides fragilis; Bacteroides fragilis) [µg/mL],MIC (Clostridium perfringens; [7]) [µg/mL],MIC (Escherichia coli [2]; Escherichia coli) [µg/mL],MIC (Staphylococcus aureus [3]; Staphylococcus aureus) [µg/mL],MIC (Staphylococcus aureus [4]; Staphylococcus aureus) [µg/mL],MIC (Escherichia coli [5]; Escherichia coli) [µg/mL],MIC (Bacteroides fragilis) [µg/mL],MIC (Clostridium perfringens) [µg/mL],MIC (Escherichia coli [2]) [µg/mL],MIC (Staphylococcus aureus [3]) [µg/mL],MIC (Staphylococcus aureus [4]) [µg/mL],MIC (Escherichia coli [5]) [µg/mL],half-life [6] [min]
CS[C@H]1CCS[C@H]2C1=C(C(=O)[O-])N1C(=O)[C@H]([C@@H](C)O)[C@@H]21.[Na+],386,0.2,≤ 10,1,0.2,0.5,2,,,,,,,
C[C@@H](O)[C@H]1C(=O)N2C(C(=O)[O-])=C3CCSCC3[C@H]12.[K+] (stereo in doubt; 15b),< 7,,,,,,,0.5,250,1,1,0.5,4,
C[C@@H](O)[C@H]1C(=O)N2C(C(=O)[O-])=C3CCSCC3[C@H]12.[K+] (stereo in doubt; 15a),,,,2,1,1,4,0.12,1000,,,,,12
C[C@@H](O)[C@H]1C(=O)N2C(C(=O)O)=C(SCCNC=N)C[C@H]12 [IMIPENEM ANHYDROUS],,0.12,30,0.5,0.06,0.12,0.5,,,,,,,
C=CCOC(=O)C1=C2SCCC[C@H]2[C@@H]2[C@@H]([C@@H](C)O)C(=O)N12,10,,500,2,1,1,1,,,,,,,
C[C@@H](O)[C@H]1C(=O)N2C(C(=O)[O-])=C3CCCS[C@@H]3[C@H]12.[Na+],,0.25,30,0.5,1,1,0.5,,,,,,,
